Laboratory results from patent US6475751B2, “Scintillation proximity assay for type II fatty acid biosynthetic enzymes” (Virginia Commonwealth University, priority 2000, dated 2002).
Like-named read-outs stand apart in the source and are kept apart here.

Columns and labels:
[1] = molecular target: T1, S. glaucescens His6-KASIII (Streptomyces glaucescens, UniProt Q54206); experiment: KASIII scintillation proximity assay (SPA); format: biochemical
T1 construct: His6 (N); made in house; host or cells: Escherichia coli BL21 (DE3 pLysE)/pLH14
T1 sequence (Q54206 1-333): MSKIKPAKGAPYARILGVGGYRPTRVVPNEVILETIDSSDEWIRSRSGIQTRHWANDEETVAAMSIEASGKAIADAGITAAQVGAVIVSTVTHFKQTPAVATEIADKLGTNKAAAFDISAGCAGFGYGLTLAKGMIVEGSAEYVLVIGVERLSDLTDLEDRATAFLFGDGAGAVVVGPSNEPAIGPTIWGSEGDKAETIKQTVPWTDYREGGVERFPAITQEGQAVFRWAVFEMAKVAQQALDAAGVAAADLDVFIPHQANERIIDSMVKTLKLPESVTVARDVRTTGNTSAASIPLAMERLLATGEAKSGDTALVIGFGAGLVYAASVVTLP
Experimental: (§1) The standard reaction mixture contained the following components in a final volume of […]: S. glaucescens His6-KASIII […], 100 mM imidazole, pH 7.0, 2.6 μM BMACP (MACP), [^3H] acetyl-CoA 0.6 μM (0.24 μCi, specific activity 20 Ci/mmol). The reaction was initiated by adding [^3H] acetyl-CoA and incubated at 30 ° C. for 10 minutes.
(§2) For the KASIII SPA, the reaction was terminated by the sequential addition of 100 μl of 100% ethanol (which denatures the KASIII) and 50 μl of the SPA bead solution (10 mg/ml). The mixture was then incubated for 2 hr at 23° C. with gentle shaking. After allowing the beads to settle the sealed OptiPlate (Packard, Meriden, Conn.) was counted using a TopCount (Packard) set up in SPA mode. A background signal was obtained by carrying out the assay in absence of KASIII. This background signal was subtracted from KASIII SPA signals.
(§3) In all inhibitor studies, the inhibitor was first dissolved in DMSO and preincubated with enzyme for 15 minutes at 23° C., prior to addition of substrate. The final DMSO concentration in each of these assays remained below 1%.
The apparent Km for MACP with the S. glaucescens KASIII was determined using the standard TCA precipitation assay with the following modifications: tritiated acetyl-CoA at a final concentration of 13.3 μM (0.4 μCi, specific activity 1 Ci/mmol ) was incubated at 30° C. for 5 min with various concentrations of MACP (0.39-18.7 μM) in a volume of 30 μl. The apparent Km for BMACP with the S. glaucescens KASIII was determined in SPA format. Tritiated acetyl-CoA at a final concentration of 7.5 μM (0.6 μCi, specific activity 4 Ci/mmol) was incubated at 30° C. for 9 min with various BMACP concentrations (0.28 to 9 μM).

[2] = molecular target: T1, S. glaucescens His6-KASIII; details: cited from earlier work
[3] = molecular target: T1, S. glaucescens His6-KASIII; experiment: KASIII TCA precipitation assay; format: biochemical
Experimental: as §1
(§4) In the KASIII TCA precipitation assay, the reaction was quenched by the addition of 200 μl ice cold 10% TCA, incubated on ice for 10 min and centrifuged at 13,000 g for 10 min. The supernatant was discarded and the pellet was resuspended with another 200 μl of cold TCA and centrifuged. The pellet bound ^3H labeled product was dissolved in 2% SDS, 20 mM NaOH and quantitated by liquid scintillation counting. The Escherichia coli KASIII assay was performed in the same manner except that the incubation time was reduced to 2 minutes, and 0.13 μg of protein and 0.4 μM MACP (BMACP) were used in the assay.
In all inhibitor studies, the inhibitor was first dissolved in DMSO and preincubated with enzyme for 15 minutes at 23° C., prior to addition of substrate. The final DMSO concentration in each of these assays remained below 1%. […]

E. coli KASIII [4] = molecular target: T2, E. coli KASIII (Escherichia coli, UniProt P0A6R0); experiment: KASIII scintillation proximity assay (SPA); format: biochemical
T2 sequence (P0A6R0 whole entry): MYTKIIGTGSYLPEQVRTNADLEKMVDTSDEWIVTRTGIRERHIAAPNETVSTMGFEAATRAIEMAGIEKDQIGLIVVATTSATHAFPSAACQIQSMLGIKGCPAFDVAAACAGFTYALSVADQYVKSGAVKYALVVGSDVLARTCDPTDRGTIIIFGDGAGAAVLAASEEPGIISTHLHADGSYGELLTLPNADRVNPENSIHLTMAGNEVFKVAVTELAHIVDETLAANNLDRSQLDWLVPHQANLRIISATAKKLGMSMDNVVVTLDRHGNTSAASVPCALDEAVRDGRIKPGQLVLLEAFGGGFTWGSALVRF
Experimental: as §1, §2
as §4, with “The Escherichia coli KASIII assay was performed in the same manner except that the incubation time was reduced to 2 minutes, and 0.13 μg of protein and 0.4 μM MACP (BMACP) were used in the assay.” left out

E. coli KASIII [5] = molecular target: T2, E. coli KASIII; experiment: KASIII TCA precipitation assay; format: biochemical
Experimental: as §1, §4, §3

For `C[S+](C)[O-]` [DMSO, Dimethyl Sulfoxide], the “reduction in the SPA signal” value ([1]; DMSO concentration of 10% v/v) was about 50% and the “decrease in the SPA signal” value ([1]; DMSO concentrations below 1.5% v/v) was “no significant decrease”.
In the case of `CC(=O)SCCNC(=O)CCNC(=O)[C@H](O)C(C)(C)COP(=O)(O)OP(=O)(O)OC[C@H]1O[C@@H](n2cnc3c(N)ncnc32)[C@H](O)[C@@H]1OP(=O)(O)O` [acetyl-CoA], the Km ([1]; SPA, suggested by linear relationship over 0-1.6 μM substrate, read-out: Km for acetyl-CoA) is listed as over 1.6 µM and the Km ([2]; previous analyses using a TCA-precipitation assay, read-out: Km for acetyl-CoA) is listed as 3 µM.
With `NC(=O)CI` [iodoacetamide, Iodoacetamide, reference compound] the IC50 ([3]; TCA precipitation assay, inhibitor preincubated with enzyme 15 minutes at 23° C.) was 25 ± 3 µM and the IC50 [1] was 15 ± 1 µM.
`C=C/C(C)=C/[C@@]1(C)SC(=O)C(C)=C1O` [thiolactomycin] showed an IC50 (E. coli KASIII [4]) of 124 ± 14 µM and an IC50 (E. coli KASIII [5]) of 160 ± 14 µM.
For “BMACP: Biotinylated Malonyl-Acyl Carrier Protein, prepared by biotinylation of MACP using NHS-biotin; KASIII substrate”, the Km ([1]; SPA format, 7.5 μM tritiated acetyl-CoA, 30° C., 9 min, read-out: Km (apparent) for substrate) is listed as 7.2 ± 2.6 µM and the Km ([2]; previously determined using a TCA precipitation assay, read-out: Km previously determined) is listed as 3.7 µM.
“MACP: Malonyl-Acyl Carrier Protein generated from Escherichia coli ACP and malonyl-CoA; KASIII substrate” gave a Km ([3]; TCA-based assay, 13.3 μM tritiated acetyl-CoA, 30° C., 5 min, read-out: Km (apparent) for substrate) of 6.1 ± 0.4 µM.
